From patent US5795882A, “Method of treating prostatic diseases using delayed and/or sustained release vitamin D formulations” (Bone Care International, Inc., priority 1996, dated 1998) come the findings set out here.

A short description of data set [1]: In vitro thermal conversion of 1α-hydroxyprevitamin D to 1α-hydroxyvitamin D. The format is physicochemical. To be noted: in ethanol, 37° C. As to the method:
A series of experiments were conducted which address the in vitro conversion of previtamin to vitamin for three 1α-hydroxyprevitamin D's: 1α-hydroxyprevitamin D2, 1α,24-dihydroxyprevitamin D2 and 1α-hydroxyprevitamin D3. Each 1α-hydroxyprevitamin D was dissolved in ethanol, incubated at 37° C. in a water bath, and samples taken at two-hour intervals. An analytical HPLC separation was performed on each sample to quantify the thermal conversion of the previtamin to the vitamin form. The data collected were normalized to account for the presence of any vitamin form in the initial formulation (≤10%). The results are presented in FIG. 1 which is a plot of % previtamin versus time in hours. Linear regression lines were generated for each previtamin.

A short description of data set [2]: Oral bioavailability of 1α,24-(OH)2 preD2 in normal rats (Example 2). Format: in vivo, rat. As for the experimental part:
In this experiment, normal rats maintained on a normal diet were assigned randomly to treatment and control groups. The rats were orally administered single doses of 1α,24-(OH)2 preD2 in a fractionated coconut oil (FCO) (1.5 μg, which was approximately 7.5 μg/kg). The control group received only the vehicle. For both groups, blood was obtained at 6 hours postdosing and analyzed for serum levels of the vitamin form, 1α,24-dihydroxyvitamin D2.

For the next data set, the target named is T1, Vitamin D Receptor (Homo sapiens, UniProt P11473).
T1 sequence (P11473 1-427): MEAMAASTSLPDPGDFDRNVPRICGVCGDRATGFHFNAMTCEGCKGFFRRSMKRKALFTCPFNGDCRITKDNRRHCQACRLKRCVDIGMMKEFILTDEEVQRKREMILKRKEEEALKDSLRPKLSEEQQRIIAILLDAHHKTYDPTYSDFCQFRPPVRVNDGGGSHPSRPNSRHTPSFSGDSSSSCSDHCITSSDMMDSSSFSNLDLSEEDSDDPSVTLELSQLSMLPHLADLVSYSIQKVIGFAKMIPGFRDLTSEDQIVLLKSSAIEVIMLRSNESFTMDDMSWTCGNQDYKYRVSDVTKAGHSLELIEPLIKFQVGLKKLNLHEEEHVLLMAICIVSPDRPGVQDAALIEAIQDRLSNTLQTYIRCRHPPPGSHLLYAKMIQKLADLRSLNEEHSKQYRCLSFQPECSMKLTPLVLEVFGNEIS
In words: VDR competitive binding assay (Examples 6-8). To be noted: in words; Examples 7 and 8 versus the vitamin form.

The subject of data set [3] is advanced androgen-independent prostate cancer. The data set can be described thus: Clinical study in advanced androgen-independent prostate cancer. The format is in vivo, human. Conditions: for progression of metastatic disease (CAT scans, x-rays, bone scans): two years. An excerpt:
Patients with advanced androgen-independent prostate cancer participate in an open-labeled study of 1α,24-(OH)2 preD2. […] On admission to the study , patients begin a course of therapy with oral 1α,24-(OH)2 preD2 lasting 26 weeks, while discontinuing any previous use of calcium supplements, vitamin D supplements, and vitamin D hormone replacement therapies. During treatment, the patients are monitored at regular intervals for: (1) hypercalcemia, hyperphosphatemia, hypercalciuria, hyperphosphaturia and other toxicity; (2) evidence of changes in the progression of metastatic disease; and (3) compliance with the prescribed test drug dosage.
The study is conducted in two phases. During the first phase, the maximal tolerated dosage (MTD) of daily oral 1α,24-(OH)2 preD2 is determined by administering progressively higher dosages to successive groups of patients. All doses are administered in the morning before breakfast. The first group of patients is treated with 25 μg of 1α,24-(OH)2 preD2. Subsequent groups of patients are treated with 50, 75 and 100 μg/day. Dosing is continued uninterrupted for the duration of the study unless serum calcium exceeds 11.6 mg/dL or other toxicity of grade 3 or 4 is observed, in which case dosing is held in abeyance until resolution of the observed toxic effect(s) and then resumed at a level which has been decreased by 10.0 μg.
During the second phase, patients are treated with 1α,24-(OH)2 preD2 for 24 months at 0.5 and 1.0 times the MTD.
The study of Example 25 is repeated for the active vitamin D compound, 1α,25-(OH)2 D2 in DSR form.

The nature of data set [4]: Blood level of 1α,25-(OH)2 D3 in vitamin D-deficient rats after oral dosing (Example 3). To be noted: oral 0.25 μg/kg, 4 h. The format is in vivo, rat. As to the method:
Male weanling rats are fed a diet deficient in vitamin D and with normal calcium (0.47%). […] Four hours after administration, the rats are killed and their blood level of 1α,25-(OH)2 D3 is measured using a standard technique.

The nature of data set [5]: Pharmacokinetics of 1α,25-(OH)2 D3 in vitamin D-deficient rats after oral dosing (Example 4). The format is in vivo, rat. Conditions: single oral dose, 2-48 h. As for the experimental part:
One group is killed 8 hours after dosing with the vehicle. […] The blood is collected and analyzed for 1α,25-(OH)2 D3 levels.

Data set [6] is described as follows: Comparison of oral bioavailability in rachitic rats (Example 5). Format: in vivo, rat. Conditions: oral, 12 h. As for the experimental part: Three-week-old rats were maintained on a vitamin D-deficient diet containing normal levels of calcium and phosphorus for 3-6 weeks until marked hypocalcemia was observed. […] A control group received only the vehicle. For all treatment groups, blood was obtained at 12 hours postdosing, and analyzed for serum levels of the vitamin form.

Data set [7] is described as follows: Equilibration of previtamin to vitamin form during binding incubation (HPLC). The format is physicochemical. To be noted: end of the VDR binding incubation, read-out: fraction equilibrated to the vitamin form.

One may read the half-life as how long it takes for the measured level to halve. Low values mean rapid decline, high ones slow decline. In the case of `CC1=C(/C=C\C2=CCC[C@]3(C)[C@@H]([C@H](C)/C=C/C(C)(O)C(C)C)CC[C@@H]23)C[C@@H](O)C[C@@H]1O` (stereo partly drawn) [1α,24-(OH)2 preD2, 1α,24-dihydroxyprevitamin D2], in data set [1], the half-life is 12.2 h. For the same compound, the “oral bioavailability (increased circulating 1α,24-(OH)2 D2)” value in data set [2] is “bioavailable”. The VDR binding affinity entry on Vitamin D Receptor is recorded as “substantially less affinity for the receptor than does its vitamin form”. The “bone pain associated with metastatic disease” value in data set [3] (patients treated with the MTD for at least six months) is listed as “significantly diminished”. Moreover, in data set [3] (patients, daily oral), the “circulating levels of 1α,25-(OH)2 D3” value is recorded as “suppressed, often to undetectable levels”; the “levels of circulating 1α,24-(OH)2 D2 versus dosage” value was “increase proportionately with the dosage administered”; the “serum and urine calcium” value is “elevated in a dose responsive manner”. The “maximal tolerated dosage (MTD)” value in data set [3] (patients, daily oral, first phase) is reported as “above 20.0 μg/day”. Moreover, in data set [3] (higher dosage (1.0 times the MTD)), the “progression of metastatic disease (CAT scans, x-rays, bone scans)” value is “partial or complete remission”. Moreover, the “progression of metastatic disease (CAT scans, x-rays, bone scans)” value in data set [3] (lower dosage (0.5 times the MTD)) is recorded as “stable disease or partial remission”.

Consider `CC1=C(/C=C\C2=CCC[C@]3(C)[C@@H]([C@H](C)CCCC(C)(C)O)CC[C@@H]23)C[C@@H](O)C[C@@H]1O` [1α,25-(OH)2 preD3, 1α,25-dihydroxyprevitamin D3], for which the half-life in data set [1] was 17.7 h. For the same compound, the “blood level of 1α,25-(OH)2 D3 versus control” value in data set [4] is recorded as “significantly elevated”. Further, in data set [5], the “1α,25-(OH)2 D3 serum levels” value is “increased 1α,25-(OH)2 D3 serum levels”; the “time profile of serum 1α,25-(OH)2 D3 increase versus dosing with 1α,25-(OH)2 D3” value was “more gradual and sustained for a greater duration”. Moreover, in data set [6], the “oral bioavailability versus 1α,25-(OH)2 D3” value was “greater bioavailability than the active form of the vitamin”. Besides, the degraded in data set [7] was around 2%.
